According to US20260364181A1, “AKR1C3 Targeted Heterobifunctional Small Molecule Proteolysis Targeting Chimeras” (BOARD OF REGENTS OF THE UNIVERSITY OF NEBRASKA, priority 2022, published 2026):

Tests used:
Assay type in all cases: cell-based
AKR1C1/C2 = AKR1C1/C2 protein degradation in 22Rv1 prostate cancer cells (Western blot)
Method: (§1) Protein Expression via Western Blot. 22Rv1 cells were seeded in a 6-well plate and incubated overnight. Next day, the cells were treated with varying concentrations of 6 (1 and 10 μM) and 5 (0.5, 1, 10, 50, 100, 250, and 500 nM; 1, 10, and 50 μM) for 24 hours and 5 (1 and 10 nM) at different time points (0, 2, 4, 6, 12, 16, 24, 48, and 72 h). Whole cell lysates were extracted in RIPA lysis buffer containing protease inhibitor and EDTA (Fisher Scientific, PI78440). Protein concentrations in each sample was estimated following BCA assay (Pierce™ BCA protein assay kit, Fisher Scientific, PI23227) as per the manufacturer's protocol. Proteins were standardized using RIPA lysis buffer with Laemelli SDS sample buffer (Thermo Scientific, AAJ61337AC) and heated at 1000C for 15 minutes. The proteins were resolved on a 4-12% premade gel (Invitrogen, NW04120BOX) at 60-90 V in 20× Bolt™ MES SDS running buffer (Fisher Scientific, B000202) and transferred onto a nitrocellulose membrane (Invitrogen, IB23001) using iBlot 2. The membranes were blocked with 2.5% non-fat dry milk (Bio-Rad, 1706404) for 1 h, and the membrane was incubated overnight on a rocking platform at 4 °C with the desired primary antibodies against AKR1C3 (mouse mAb, 1:200, Sigma, A6229), AKR1C1/C2 (rabbit mAb, 1:500, Abcam, ab179448), ARv7 (rabbit mAb, 1:500, Abcam, ab198394) and actin (mouse mAb, 1:1,000, ThermoFisher, MA5-11869). The membranes were washed three times, 10 minutes each, with 1×Tris-buffered saline (TBST, Bio-Rad, 1706435) in 0.1% Tween 20, on a rocking platform wherein they were incubated with rabbit anti-mouse IgG (ThermoFisher, 31450) or goat anti-rabbit IgG (Jackson ImmunoResearch, 111-035-003) secondary antibody (1:1,000) horseradish peroxidase conjugate for 1 hour. […] Bands were quantified by densitometry using ImageJ software and fold change in AKR1C3, AKR1C1/C2, and ARv7 protein expression was determined based on actin controls. […]

ARv7 = ARv7 protein degradation in 22Rv1 prostate cancer cells (Western blot)
Method: as §1

AKR1C3 = molecular target: T1, AKR1C3 (Homo sapiens, UniProt P42330); assay: AKR1C3 protein degradation in 22Rv1 prostate cancer cells (Western blot); design: 22Rv1 prostate cancer cells that express high levels of AKR1C3; host or cells: 22Rv1
T1 sequence (P42330 1-323): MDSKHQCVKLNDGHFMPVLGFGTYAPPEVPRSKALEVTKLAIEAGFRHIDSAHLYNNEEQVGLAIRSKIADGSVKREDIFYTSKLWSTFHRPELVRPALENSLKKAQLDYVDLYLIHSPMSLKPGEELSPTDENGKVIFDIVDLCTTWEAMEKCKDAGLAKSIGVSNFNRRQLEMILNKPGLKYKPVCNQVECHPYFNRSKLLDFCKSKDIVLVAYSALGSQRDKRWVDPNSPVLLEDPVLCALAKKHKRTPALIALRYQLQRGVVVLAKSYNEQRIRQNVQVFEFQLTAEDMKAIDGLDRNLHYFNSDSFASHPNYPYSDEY
Method: Protein Expression via Western Blot. 22Rv1 cells were seeded in a 6-well plate and incubated overnight. Next day, the cells were treated with varying concentrations of 6 (1 and 10 μM) and 5 (0.5, 1, 10, 50, 100, 250, and 500 nM; 1, 10, and 50 μM) for 24 hours and 5 (1 and 10 nM) at different time points (0, 2, 4, 6, 12, 16, 24, 48, and 72 h). Whole cell lysates were extracted in RIPA lysis buffer containing protease inhibitor and EDTA (Fisher Scientific, PI78440). Protein concentrations in each sample was estimated following BCA assay (Pierce™ BCA protein assay kit, Fisher Scientific, PI23227) as per the manufacturer's protocol. Proteins were standardized using RIPA lysis buffer with Laemelli SDS sample buffer (Thermo Scientific, AAJ61337AC) and heated at 1000C for 15 minutes. The proteins were resolved on a 4-12% premade gel (Invitrogen, NW04120BOX) at 60-90 V in 20× Bolt™ MES SDS running buffer (Fisher Scientific, B000202) and transferred onto a nitrocellulose membrane (Invitrogen, IB23001) using iBlot 2. The membranes were blocked with 2.5% non-fat dry milk (Bio-Rad, 1706404) for 1 h, and the membrane was incubated overnight on a rocking platform at 4 °C with the desired primary antibodies against AKR1C3 (mouse mAb, 1:200, Sigma, A6229), AKR1C1/C2 (rabbit mAb, 1:500, Abcam, ab179448), ARv7 (rabbit mAb, 1:500, Abcam, ab198394) and actin (mouse mAb, 1:1,000, ThermoFisher, MA5-11869). The membranes were washed three times, 10 minutes each, with 1×Tris-buffered saline (TBST, Bio-Rad, 1706435) in 0.1% Tween 20, on a rocking platform wherein they were incubated with rabbit anti-mouse IgG (ThermoFisher, 31450) or goat anti-rabbit IgG (Jackson ImmunoResearch, 111-035-003) secondary antibody (1:1,000) horseradish peroxidase conjugate for 1 hour. The membranes were again washed three times with 1×TBST, upon which they were exposed to LI-COR WesternSure PREMIUM chemiluminescent substrate (Fisher Scientific, 50-489-552) and developed in a dark room with Konica Minolta equipment. Bands were quantified by densitometry using ImageJ software and fold change in AKR1C3, AKR1C1/C2, and ARv7 protein expression was determined based on actin controls. […]
The AKR1C3 degradation effect of PROTAC 5 was screened across a range of concentrations to identify a suitable treatment protocol. 22Rv1 cells were treated with increasing concentrations of […], DMSO or lenalidomide 6 at 1 μM and 10 μM for 24 hours, and the degradation profile was determined by Western blot analysis with antibody for AKR1C3.

[1] = 10 nM, 2 hour pretreatment with MG132 (3 μM), in words

O=C(O)/C=C/c1cc(C(=O)NCc2ccc(OCc3cn(CCOCCOCC(=O)Nc4cccc5c4CN(C4CCC(=O)NC4=O)C5=O)nn3)cc2)cc(-c2ccccc2)c1 (centres unmarked) [Compound IA, (E)-3-(5-((4-((1-(2-(2-(2-((2-(2,6-dioxopiperidin-3-yl)-1-oxoisoindolin-4-yl)amino)-2-oxoethoxy)ethoxy)ethyl)-1H-1,2,3-triazol-4-yl)methoxy)benzyl)carbamoyl)-[1,1 ? biphenyl]-3-yl)acrylic acid]
degradation of AKR1C1/C2 compared with AKR1C3 (AKR1C1/C2; 10 nM, in words): to a lesser extent than AKR1C3
degradation of AKR1C1/C2 (in words) (AKR1C1/C2; 10 nM, time-dependent): trend of degradation of AKR1C1/C2 in a time-dependent manner
DC50 (AKR1C1/C2; 72 hours, read-out: AKR1C1/C2 DC50 (half-maximal degradation concentration)): 49 nM
ARv7 expression after proteasome inhibitor pretreatment (ARv7; [1]): not affected
ARv7 expression (ARv7; 10 nM, 72 hours, in words): almost complete amelioration of ARv7 expression
DC50 (ARv7; 72 hours, read-out: ARv7 DC50 (half-maximal degradation concentration)): 70 nM
mean AKR1C3 degradation (AKR1C3; 0.5 nM, 24 h, in words): no degradation
time course of AKR1C3 levels (AKR1C3; 1 nM, 24 through 72 hours post-treatment, in words): time-dependent decrease in AKR1C3 levels
onset of decrease in AKR1C3 levels (AKR1C3; 1 nM, post-treatment): 24 h
degradation of AKR1C3 (in words) (AKR1C3; 10 nM, 0-72 h): significant degradation
AKR1C3 degradation after proteasome inhibitor pretreatment (AKR1C3; [1]): effectively blocked
AKR1C3 protein expression (AKR1C3; 10 nM, 4 hours of treatment, in words): effectively reduced AKR1C3 protein expression
AKR1C3 degradation compared with Compound 3 (AKR1C3; 10 nM, 72 hour incubation, in words): outperformed Compound 3
onset of AKR1C3 degradation (AKR1C3; 10 nM, post-treatment): 4 h
AKR1C3 expression (AKR1C3; 1-50 μM, 24 h, in words): increased AKR1C3 expression
Dmax at 0.01 µM (AKR1C3; 22Rv1, 10 nM, 72 hours, read-out: maximal degradation of AKR1C3): ~75%
AKR1C3 expression (AKR1C3; 100-500 nM, 24 h, in words): increased AKR1C3 expression
